Assay results published in patent US8455194B2, “Diagnostic methods” (Isis Innovation Limited, priority 2008, dated 2013).
Where two headings read alike, the source gives them in different places.

Legend:
[1] = cited from earlier work
[2] = system: SLCO1B1 rs4149056 SNP; details: summary estimate with interval in brackets; cited from earlier work
[3] = Asian subjects compared with a White (Caucasian) control group; cited from earlier work
[4] = Heart Protection Study (HPS): myopathy in participants allocated 40 mg simvastatin daily; assay type: in vivo, human
Description: (§1) Using DNA extracted from 19,856 (97%) participants, the rs4149056 and rs2306283 SNPs in SLCO1B1 were successfully genotyped in 16,664 participants classified as Caucasian. Effects of these genotypes on myopathy risk and on LDL-cholesterol reduction were then assessed.

[5] = system: LDL-cholesterol; experiment: Heart Protection Study (HPS): LDL-cholesterol reduction on 40 mg simvastatin daily; assay type: in vivo, human; details: 4-6 weeks of 40 mg simvastatin daily
Description: as §1
Among 16,664 genotyped participants in HPS,^22 the rs4149056 and rs2306283 variants were not associated with significant differences in pre-treatment LDL-cholesterol levels. […] These 17,000 genotyped participants without myopathy also provide an alternative control population for the SEARCH cases, yielding an odds ratio of 4.7 (3.5-6.4) per rs4149056 C allele and a stronger p-value of 3×10^−28.

[6] = for Cumulative percentage with myopathy / Estimated cumulative myopathy risk: 80 mg simvastatin daily; for Estimated cumulative myopathy risk: life-table analysis
Excerpt: After randomisation, follow-up of participants was scheduled to occur at 2, 4, 8 and 12 months, and then at 6-monthly intervals. Information was sought about any possible myocardial infarction, hospitalisation for angina, stroke, vascular procedure, pulmonary embolus, cancer or other serious adverse experience. In addition, any new unexplained muscle pain or weakness was explicitly sought and recorded. A blood sample was taken at each follow-up visit for central laboratory assay of CK and ALT.
Standard 1d.f. (trend) and 2 d.f. […] Haploview v4.0 release candidate 2^25 was used to estimate linkage disequilibrium and plot association results for genotyped SNPs. Haplotype frequencies and associated risks were estimated using tools in the haplo.stats (v1.3.1) package^26 in R (v2.6.1)^27. Physical positions refer to NCBI build-36 of the human genome, and alleles are expressed in the forward strand of the reference human genome (NCBI build-36). Ensembl version 46 and NCBI dbSNP build 127 and published reports^11,28,29 were used to classify SNPs as synonymous or non-synonymous and to identify their location within introns or exons.

[7] = among 10,269 participants allocated 40 mg simvastatin daily, 5 years average follow-up
[8] = among 6031 participants allocated 80 mg simvastatin daily, average follow-up about 6 years
[9] = among 6033 participants allocated 20 mg simvastatin daily

Cc1ccc(C)c(OCCCC(C)(C)C(=O)O)c1 [gemfibrozil]
Increase in area under the statin elimination curve (AUC) ([1]; gemfibrozil given concomitantly with several statins): 2-4 fold

CCC(C)(C)C(=O)O[C@H]1C[C@@H](C)C=C2C=C[C@H](C)[C@H](CC[C@@H](O)C[C@@H](O)CC(=O)O)[C@H]21 [Simvastatin acid]
% higher AUC per C allele among studies of this statin [2]: 61 (30, 100) %

O=C(O)C[C@H](O)C[C@H](O)/C=C/c1c(C2CC2)nc2ccccc2c1-c1ccc(F)cc1 [Pitavastatin (acid), Pitavastatin]
% higher AUC per C allele among studies of this statin [2]: 37 (10, 71) %

CC(C)c1nc(N(C)S(C)(=O)=O)nc(-c2ccc(F)cc2)c1/C=C/[C@@H](O)C[C@@H](O)CC(=O)O [Rosuvastatin (acid), Rosuvastatin]
Elevation in median exposure of rosuvastatin [3]: ~2 fold
Increase in AUC of rosuvastatin ([1]; rosuvastatin combined with cyclosporine): 7-11 times
% higher AUC per C allele among studies of this statin [2]: 31 (15, 42) %

CC[C@H](C)C(=O)O[C@H]1C[C@H](O)C=C2C=C[C@H](C)[C@H](CC[C@@H](O)C[C@@H](O)CC(=O)O)[C@H]21 [Pravastatin (acid), Pravastatin]
% higher AUC per C allele among studies of this statin [2]: 35 (17, 56) %

CCC(C)(C)C(=O)O[C@H]1C[C@@H](C)C=C2C=C[C@H](C)[C@H](CC[C@@H]3C[C@@H](O)CC(=O)O3)[C@H]21 [simvastatin]
Number of definite myopathy cases [4, 7]: 10
Number of incipient myopathy cases [4, 7]: 14
Number of myopathy cases (definite plus incipient) [4, 7]: 24
Number of definite or incipient myopathy cases while taking statin ([4]; participants taking their allocated 40 mg simvastatin daily): 23
Average reduction in LDL-cholesterol ([5]; 16,664 genotyped participants, SE 0.12): 40.57%
Larger LDL-cholesterol reduction per rs2306283 G allele ([5]; both variants considered together, SE 0.18): 0.62%
Smaller LDL-cholesterol reduction per rs4149056 C allele ([5]; both variants considered together, SE 0.25): 1.28%
Cumulative percentage with myopathy ([6]; all genotypes, Year 1): 0.91%
Cumulative percentage with myopathy ([6]; all genotypes, Year 5): 1.56%
Estimated cumulative myopathy risk ([6]; rs4149056 CC homozygotes): 18%
Estimated cumulative myopathy risk ([6]; rs4149056 CT genotype): about 3%
Estimated cumulative myopathy risk ([6]; rs4149056 TT homozygotes): 0.6%
Cumulative percentage with myopathy ([6]; rs4149056 genotype CC, Year 1): 15.25%
Cumulative percentage with myopathy ([6]; rs4149056 genotype CC, Year 5): 18.55%
Cumulative percentage with myopathy ([6]; rs4149056 genotype CT, Year 1): 1.38%
Cumulative percentage with myopathy ([6]; rs4149056 genotype CT, Year 5): 2.83%
Cumulative percentage with myopathy ([6]; rs4149056 genotype TT, Year 1): 0.34%
Cumulative percentage with myopathy ([6]; rs4149056 genotype TT, Year 5): 0.63%
Number of definite myopathy cases [6, 8]: 49
Number of incipient myopathy cases [6, 8]: 49
Number of definite myopathy cases [6, 9]: 2
Number of incipient myopathy cases [6, 9]: 6

CC(C)n1c(/C=C/C(O)CC(O)CC(=O)O)c(-c2ccc(F)cc2)c2ccccc21 (stereo not drawn) [Fluvastatin (acid), Fluvastatin]
% higher AUC per C allele among studies of this statin [2]: 10 (−9, 34) %
